Literature values as cited in US11413265B2, “Formulations and compositions of Cabazitaxel” (Zhuhai Beihai Biotech Co., Ltd., priority 2018, dated 2022).

How the values were obtained:
[1] = molecular target: human serum albumin (Homo sapiens, UniProt P02768); conditions: in vitro
[2] = system: human serum proteins; conditions: in vitro

Sequence of human serum albumin (P02768 25-609): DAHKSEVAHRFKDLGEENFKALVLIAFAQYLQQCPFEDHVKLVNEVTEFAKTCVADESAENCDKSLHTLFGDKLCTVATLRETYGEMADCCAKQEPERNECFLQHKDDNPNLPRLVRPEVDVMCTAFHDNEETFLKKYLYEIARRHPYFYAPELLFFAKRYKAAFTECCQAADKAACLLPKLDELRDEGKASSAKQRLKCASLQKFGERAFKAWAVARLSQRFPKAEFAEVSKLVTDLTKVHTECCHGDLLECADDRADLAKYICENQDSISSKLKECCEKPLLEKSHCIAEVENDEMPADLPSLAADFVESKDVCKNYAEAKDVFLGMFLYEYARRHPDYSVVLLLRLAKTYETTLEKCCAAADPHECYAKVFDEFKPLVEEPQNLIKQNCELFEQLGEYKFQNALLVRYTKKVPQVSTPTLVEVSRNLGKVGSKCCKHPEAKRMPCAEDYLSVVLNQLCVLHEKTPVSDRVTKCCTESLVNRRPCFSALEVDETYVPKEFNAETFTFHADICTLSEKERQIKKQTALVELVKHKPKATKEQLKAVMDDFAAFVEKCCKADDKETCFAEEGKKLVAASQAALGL

## CO[C@H]1C(=O)[C@]2(C)[C@@H](OC)C[C@H]3OC[C@@]3(OC(C)=O)[C@H]2[C@H](OC(=O)c2ccccc2)[C@]2(O)C[C@H](OC(=O)[C@H](O)[C@@H](NC(=O)OC(C)(C)C)c3ccccc3)C(C)=C1C2(C)C [Cabazitaxel, cabazitaxel]
[1]
  bound to human serum albumin: 82%
alcohol
  solubility in alcohol: soluble
water
  solubility in water: practically insoluble
[2]
  concentration up to which binding to human serum proteins was not saturable: > 50,000 ng/mL
